Source: patent US12227488B2, “Small molecule degraders of Helios and methods of use” (DANA-FARBER CANCER INSTITUTE, INC., priority 2018, dated 2025)

What was measured:
[1] = biological target: T1, CRBN and Helios (IKZF2) (Homo sapiens, UniProt Q96SW2+Q9UKS7); experiment: TR-FRET dimerization assay (CRBN-IKZF2 ternary complex formation); assay type: binding; details: n=1
T1 construct: His (N); Strep (N)
In short: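 BODIPY-labeled DDB1ΔB-CRBN and in vitro biotinylated IKZF2 were treated with increasing compound concentrations plus tracer Terbium-Streptavidin and incubated 15 min at rt. Recruitment was quantified as the 520/490 nm TR-FRET ratio; values are single measurements (n=1), each averaged from at least three technical replicates.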

[2] = tested on: IKZF2; experiment: Cellular degradation assay, eGFP-IKZF2Δ fusion with mCherry reporter in Flp-In 293 cells; assay type: cell-based; details: for IKZF2 GFP/RFP Relative Abundance: 5 h incubation, n=1
In short: (§1)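 Flp-In 293 cells stably expressing eGFP-tagged degron fusions with P2A-mCherry reporter were treated with compound titrations (0.5% DMSO) for 5 hours. Imaging quantified GFP-positive/mCherry-positive cell fraction per well; DC50 at 5 h from nonlinear variable-slope fit.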

[3] = biological target: T2, IKZF1 (Homo sapiens, UniProt Q13422); experiment: Cellular degradation assay, eGFP-IKZF1Δ fusion with mCherry reporter in Flp-In 293 cells; assay type: cell-based; details: for IKZF1 GFP/RFP Relative Abundance: 5 h incubation, n=1
T2 construct: expressed in transfected cells; host or cells: Flp-In 293
T2 sequence (Q13422 83-213 isoform Q13422-7 limits assumed): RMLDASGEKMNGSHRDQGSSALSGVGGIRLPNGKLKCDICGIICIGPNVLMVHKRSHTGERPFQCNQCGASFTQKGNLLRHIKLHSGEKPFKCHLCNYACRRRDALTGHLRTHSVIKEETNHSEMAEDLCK
T2 sequence (Q96SW2 whole entry partner, the tested form may be a part): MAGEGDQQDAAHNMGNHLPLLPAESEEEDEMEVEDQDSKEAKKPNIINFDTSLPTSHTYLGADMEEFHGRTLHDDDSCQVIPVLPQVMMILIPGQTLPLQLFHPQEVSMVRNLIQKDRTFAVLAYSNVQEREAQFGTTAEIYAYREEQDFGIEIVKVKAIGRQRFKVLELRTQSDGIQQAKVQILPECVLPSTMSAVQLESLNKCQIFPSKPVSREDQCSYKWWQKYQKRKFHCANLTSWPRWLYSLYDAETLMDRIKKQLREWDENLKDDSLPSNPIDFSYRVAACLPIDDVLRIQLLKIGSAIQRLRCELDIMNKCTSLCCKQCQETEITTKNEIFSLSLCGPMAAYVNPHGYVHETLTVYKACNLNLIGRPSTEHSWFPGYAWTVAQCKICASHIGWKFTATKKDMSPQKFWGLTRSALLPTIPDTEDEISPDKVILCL
T2 sequence (Q16531 2-1140 partner limits assumed): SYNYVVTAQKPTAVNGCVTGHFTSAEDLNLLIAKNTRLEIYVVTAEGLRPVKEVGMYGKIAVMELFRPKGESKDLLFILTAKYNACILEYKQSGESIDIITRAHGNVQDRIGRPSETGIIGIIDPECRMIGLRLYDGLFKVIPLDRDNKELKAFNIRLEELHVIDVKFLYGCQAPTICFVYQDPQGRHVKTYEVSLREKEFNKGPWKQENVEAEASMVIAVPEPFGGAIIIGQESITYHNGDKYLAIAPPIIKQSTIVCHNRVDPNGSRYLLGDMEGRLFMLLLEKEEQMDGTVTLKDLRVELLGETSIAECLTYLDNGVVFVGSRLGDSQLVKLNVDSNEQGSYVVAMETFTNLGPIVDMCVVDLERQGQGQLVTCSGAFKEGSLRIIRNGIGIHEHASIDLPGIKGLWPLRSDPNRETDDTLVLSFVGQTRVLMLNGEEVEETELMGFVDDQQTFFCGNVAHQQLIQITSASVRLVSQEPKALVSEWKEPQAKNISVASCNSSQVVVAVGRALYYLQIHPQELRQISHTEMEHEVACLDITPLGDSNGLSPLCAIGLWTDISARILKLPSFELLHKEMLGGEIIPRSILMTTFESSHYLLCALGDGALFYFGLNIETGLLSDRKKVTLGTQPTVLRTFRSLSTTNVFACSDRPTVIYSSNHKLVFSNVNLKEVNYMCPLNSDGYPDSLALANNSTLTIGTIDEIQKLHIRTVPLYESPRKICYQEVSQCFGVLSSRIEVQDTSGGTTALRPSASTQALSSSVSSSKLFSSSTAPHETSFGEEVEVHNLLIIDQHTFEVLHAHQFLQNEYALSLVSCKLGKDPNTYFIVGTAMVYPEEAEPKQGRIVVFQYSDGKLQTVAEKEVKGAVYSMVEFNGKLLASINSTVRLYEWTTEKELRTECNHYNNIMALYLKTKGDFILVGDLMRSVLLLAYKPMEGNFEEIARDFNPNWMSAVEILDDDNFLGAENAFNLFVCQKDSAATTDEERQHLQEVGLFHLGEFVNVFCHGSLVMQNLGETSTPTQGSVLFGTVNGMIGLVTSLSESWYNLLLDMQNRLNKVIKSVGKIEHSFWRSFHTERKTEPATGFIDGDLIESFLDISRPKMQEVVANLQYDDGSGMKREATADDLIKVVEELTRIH
In short: as §1

[4] = biological target: T3, SALL4 ZNF1-2 (Homo sapiens, UniProt Q96SW2+Q9UJQ4); experiment: Cellular degradation assay, eGFP-SALL4 ZnF1-2 fusion with mCherry reporter in Flp-In 293 cells; assay type: cell-based; details: 5 h incubation, n=1
T3 construct: IKZF1Δ, IKZF2Δ, GSPT1 and SALL4 ZnF1-2 were subcloned; expressed in transfected cells; host or cells: Flp-In 293
T3 sequence (Q9UJQ4 378-438 limits assumed): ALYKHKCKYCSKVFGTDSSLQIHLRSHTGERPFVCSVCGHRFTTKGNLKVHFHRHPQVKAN
T3 sequence (Q96SW2 whole entry, the tested form may be a part): as the sequence (Q96SW2 whole entry partner, the tested form may be a part) above
T3 sequence (Q16531 whole entry partner, the tested form may be a part): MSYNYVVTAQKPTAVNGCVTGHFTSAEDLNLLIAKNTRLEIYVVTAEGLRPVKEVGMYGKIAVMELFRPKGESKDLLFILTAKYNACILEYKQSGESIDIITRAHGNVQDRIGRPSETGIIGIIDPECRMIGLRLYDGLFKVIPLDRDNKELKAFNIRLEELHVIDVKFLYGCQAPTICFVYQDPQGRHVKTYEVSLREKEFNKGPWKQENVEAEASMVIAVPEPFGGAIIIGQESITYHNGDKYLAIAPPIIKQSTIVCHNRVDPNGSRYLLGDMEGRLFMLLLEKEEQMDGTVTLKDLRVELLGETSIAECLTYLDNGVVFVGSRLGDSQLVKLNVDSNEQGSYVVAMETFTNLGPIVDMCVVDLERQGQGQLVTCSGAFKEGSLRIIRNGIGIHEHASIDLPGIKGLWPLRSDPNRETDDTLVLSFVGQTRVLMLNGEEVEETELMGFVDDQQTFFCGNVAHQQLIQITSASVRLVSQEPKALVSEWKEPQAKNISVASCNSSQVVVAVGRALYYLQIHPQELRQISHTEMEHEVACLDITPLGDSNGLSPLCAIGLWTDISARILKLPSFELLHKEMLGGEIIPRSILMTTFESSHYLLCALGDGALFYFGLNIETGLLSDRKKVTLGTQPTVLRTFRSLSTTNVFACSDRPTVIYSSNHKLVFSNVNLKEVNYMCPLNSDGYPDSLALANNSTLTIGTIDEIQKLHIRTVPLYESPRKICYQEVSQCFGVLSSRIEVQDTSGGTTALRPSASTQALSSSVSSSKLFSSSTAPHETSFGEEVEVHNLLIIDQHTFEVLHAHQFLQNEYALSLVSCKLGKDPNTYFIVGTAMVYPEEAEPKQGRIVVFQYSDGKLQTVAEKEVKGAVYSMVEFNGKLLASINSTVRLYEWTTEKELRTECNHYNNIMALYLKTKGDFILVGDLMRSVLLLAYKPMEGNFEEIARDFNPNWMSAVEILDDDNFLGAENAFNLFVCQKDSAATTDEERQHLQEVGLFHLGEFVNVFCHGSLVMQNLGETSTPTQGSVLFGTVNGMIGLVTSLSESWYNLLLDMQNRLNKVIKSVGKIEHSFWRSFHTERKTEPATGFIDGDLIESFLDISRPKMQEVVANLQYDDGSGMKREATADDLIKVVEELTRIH
Procedure: IKZF1Δ, IKZF2Δ, GSPT1 and SALL4 ZnF1-2 were subcloned into mammalian pcDNA5/FRT Vector (Ampicillin and Hygromycin B resistant) modified to contain MCS-eGFP-P2A-mCherry. Stable cell lines expressing eGFP-protein fusion and mCherry reporter were generated using Flp-In™ 293 system. Plasmid (0.3 μg) and pOG44 (4.7 μg) DNA were preincubated in 100 μL of Opti-MEM® I (Gibco®, Life Technologies™) media containing 0.05 mg/mL Lipofectamine® 2000 (Invitrogen™) for 20 min and added to Flp-In™ 293 cells containing 1.9 ml of DMEM media (Gibco®, Life Technologies™) per well in a 6-well plate format (Falcon, 353046). Cells were propagated after 48 h and transferred into a 10 cm^2 plate (Corning, 430165) in DMEM media containing 50 μg/mL of Hygromycin B (REF 10687010, Invitrogen™) as a selection marker. Following 2-3 passage cycle, FACS (FACSAria™ II, BD) was used to enrich for cells expressing eGFP and mCherry. Cells stably expressing the IKZF1Δ, IKZF2Δ, GSPT1 or SALL4 Znf1-2 GFP fusions with mCherry reporter were seeded at 30-50% confluency in 384-well plates with 50 μL FluoroBrite™ DMEM media (Thermo Fisher Scientific, A18967) containing 10% FBS per well a day before compound treatment. Compound titrations were dispensed using a D300e Digital Dispenser (HP), normalized to 0.5% DMSO, and incubated with cells for 5 hours. The assay plate was imaged immediately using an Acumen® High Content Imager (TTP Labtech) with 488 nm and 561 nm lasers in […] grid per well format.
(§2) The resulting images were analyzed using CellProfiler™. A series of image analysis steps (‘image analysis pipeline’) was constructed. First, the red and green channels were aligned and cropped to target the middle of each well (to avoid analysis of heavily clumped cells at the edges), and a background illumination function was calculated for both red and green channels of each well individually and subtracted to correct for illumination variations across the 384-well plate from various sources of error. An additional step was then applied to the green channel to suppress the analysis of large auto fluorescent artifacts and enhance the analysis of cell specific fluorescence by way of selecting for objects under a given size, 30 A.U., and with a given shape, speckles. mCherry-positive cells were then identified in the red channel filtering for objects between 8-60 pixels in diameter and using intensity to distinguish between clumped objects. The green channel was then segmented into GFP positive and negative areas and objects were labeled as GFP positive if at least 40% of it overlapped with a GFP positive area. The fraction of GFP-positive cells/mCherry-positive cells in each well was then calculated, and the green and red images were rescaled for visualization.

[5] = biological target: GSPT1 (Homo sapiens, UniProt P15170+Q96SW2); experiment: Cellular degradation assay, eGFP-GSPT1 fusion with mCherry reporter in Flp-In 293 cells; assay type: cell-based; set-up: expressed in transfected cells; host or cells: Flp-In 293; details: for GSPT1 GFP/RFP Relative Abundance: 5 h incubation, n=1
Chain of GSPT1 (P15170 whole entry, the tested form may be a part): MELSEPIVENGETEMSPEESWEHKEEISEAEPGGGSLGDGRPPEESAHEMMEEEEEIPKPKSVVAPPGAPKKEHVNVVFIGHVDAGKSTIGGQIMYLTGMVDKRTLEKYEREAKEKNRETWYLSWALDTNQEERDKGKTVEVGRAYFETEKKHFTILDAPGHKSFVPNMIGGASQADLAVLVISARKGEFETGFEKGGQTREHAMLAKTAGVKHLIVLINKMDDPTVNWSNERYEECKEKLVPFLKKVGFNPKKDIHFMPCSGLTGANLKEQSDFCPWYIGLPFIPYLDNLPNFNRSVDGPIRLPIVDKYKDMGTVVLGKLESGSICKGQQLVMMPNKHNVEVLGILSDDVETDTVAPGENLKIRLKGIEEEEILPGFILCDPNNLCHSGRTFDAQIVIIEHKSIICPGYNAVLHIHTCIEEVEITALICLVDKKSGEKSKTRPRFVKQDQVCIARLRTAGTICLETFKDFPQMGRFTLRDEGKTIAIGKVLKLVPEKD
Chain of GSPT1 (Q96SW2 whole entry, the tested form may be a part): as the sequence (Q96SW2 whole entry partner, the tested form may be a part) above
Chain of GSPT1 (Q16531 whole entry partner, the tested form may be a part): as the sequence (Q16531 whole entry partner, the tested form may be a part) above
Procedure: IKZF1Δ, IKZF2Δ, GSPT1 and SALL4 ZnF1-2 were subcloned into mammalian pcDNA5/FRT Vector (Ampicillin and Hygromycin B resistant) modified to contain MCS-eGFP-P2A-mCherry. […] Following 2-3 passage cycle, FACS (FACSAria™ II, BD) was used to enrich for cells expressing eGFP and mCherry. Cells stably expressing the IKZF1Δ, IKZF2Δ, GSPT1 or SALL4 Znf1-2 GFP fusions with mCherry reporter were seeded at 30-50% confluency in 384-well plates with 50 μL FluoroBrite™ DMEM media (Thermo Fisher Scientific, A18967) containing 10% FBS per well a day before compound treatment. Compound titrations were dispensed using a D300e Digital Dispenser (HP), normalized to 0.5% DMSO, and incubated with cells for 5 hours.
as §2
The degradation assay was performed as described above. […] Degradation was measured after 5 h of compound treatment and the concentrations that lead to half degradation at 5 h (DC50,5 h) were calculated using the nonlinear fit variable slope model (GraphPad Software).

[6] = compound concentration 6.6667E−05
[7] = compound concentration 6.6667E−06
[8] = compound concentration 6.6667E−07 (667 nM)
[9] = compound concentration 2.00E−05
[10] = compound concentration 2.00E−06
[11] = compound concentration 2.00E−07
[12] = half degradation at 5 h (DC50,5 h), triplicate, 11 point dose response

T1 sequence (Q96SW2 whole entry): as the sequence (Q96SW2 whole entry partner, the tested form may be a part) above
T1 sequence (Q9UKS7 whole entry): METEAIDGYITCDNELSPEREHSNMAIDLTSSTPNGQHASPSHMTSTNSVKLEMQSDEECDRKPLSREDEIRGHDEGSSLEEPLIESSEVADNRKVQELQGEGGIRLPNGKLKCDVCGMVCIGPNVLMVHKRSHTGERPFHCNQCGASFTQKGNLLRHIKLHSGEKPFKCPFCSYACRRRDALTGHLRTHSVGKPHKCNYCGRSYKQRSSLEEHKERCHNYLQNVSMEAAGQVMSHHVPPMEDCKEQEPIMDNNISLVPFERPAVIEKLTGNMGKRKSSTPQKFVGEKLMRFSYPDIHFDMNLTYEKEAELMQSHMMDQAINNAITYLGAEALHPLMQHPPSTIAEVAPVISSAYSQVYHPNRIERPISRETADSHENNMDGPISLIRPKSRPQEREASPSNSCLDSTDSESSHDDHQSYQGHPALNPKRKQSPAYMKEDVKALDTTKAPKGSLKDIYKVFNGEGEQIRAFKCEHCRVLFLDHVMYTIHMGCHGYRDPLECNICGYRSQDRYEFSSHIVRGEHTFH

| Structure (SMILES) | TR-FRET-IKZF2 (Normalized to CC-885) [1, 6] | TR-FRET-IKZF2 (Normalized to CC-885) [1, 7] | TR-FRET-IKZF2 (Normalized to CC-885) [1, 8] | IKZF2 GFP/RFP Relative Abundance [2, 9] | IKZF2 GFP/RFP Relative Abundance [2, 10] | IKZF2 GFP/RFP Relative Abundance [2, 11] | IKZF1 GFP/RFP Relative Abundance [3, 9] | IKZF1 GFP/RFP Relative Abundance [3, 10] | IKZF1 GFP/RFP Relative Abundance [3, 11] | SALL4 ZNF1-2 GFP/RFP Relative Abundance [4, 9] | SALL4 ZNF1-2 GFP/RFP Relative Abundance [4, 10] | SALL4 ZNF1-2 GFP/RFP Relative Abundance [4, 11] | GSPT1 GFP/RFP Relative Abundance [5, 9] | GSPT1 GFP/RFP Relative Abundance [5, 10] | GSPT1 GFP/RFP Relative Abundance [5, 11] | DC50 [2, 12] [nM] | DC50 [3, 12] [nM] | DC50 [5, 12] [nM] |
| --- | --- | --- | --- | --- | --- | --- | --- | --- | --- | --- | --- | --- | --- | --- | --- | --- | --- | --- |
| CN(C)C(=O)c1ccc(NC2=CC(=O)N(C3CCC(=O)NC3=O)C2=O)cc1 (stereo not drawn) [Compound 34, 4-((1-(2,6-dioxopiperidin-3-yl)-2,5-dioxo-2,5-dihydro-1H-pyrrol-3-yl)amino)-N,N-dimethylbenzamide] | 0.077 | 0.064 | 0.059 | 0.981 | 1.018 | 0.950 | 1.042 | 0.984 | 0.904 | 0.940 | 0.944 | 0.943 | 0.867 | 0.821 | 0.878 |  |  |  |
| O=C1CCC(N2C(=O)C=C(Nc3ccc(Cl)cc3)C2=O)C(=O)N1 (stereo not drawn) [Compound 25, 3-(3-((4-chlorophenyl)amino)-2,5-dioxo-2,5-dihydro-1H-pyrrol-1-yl)piperidine-2,6-dione] | 0.339 | 0.282 | 0.230 | 0.966 | 0.978 | 0.955 | 0.258 | 0.298 | 0.341 | 0.831 | 0.897 | 0.887 | 1.019 | 1.233 | 1.201 |  |  |  |
| O=C1CCC(N2C(=O)C=C(Nc3ccc4cn[nH]c4c3)C2=O)C(=O)N1 (stereo not drawn) [Compound 32, 3-(3-((1H-indazol-6-yl)amino)-2,5-dioxo-2,5-dihydro-1H-pyrrol-1-yl)piperidine-2,6-dione] | 0.274 | 0.213 | 0.210 | 1.008 | 0.941 | 0.958 | 0.748 | 0.795 | 0.832 | 1.008 | 0.889 | 0.901 | 0.646 | 0.855 | 0.970 |  |  |  |
| COC(=O)CNC1=CC(=O)N(C2CCC(=O)NC2=O)C1=O (stereo not drawn) [Compound 13, Methyl (1-(2,6-dioxopiperidin-3-yl)-2,5-dioxo-2,5-dihydro-1H-pyrrol-3-yl)glycinate] | 0.032 | 0.028 | 0.019 | 1.040 | 1.005 | 1.070 | 1.069 | 1.076 | 1.058 | 0.962 | 1.017 | 1.017 | 1.172 | 1.162 | 1.004 |  |  |  |
| O=C1CCC(N2C(=O)C=C(Nc3cccc(Cl)c3)C2=O)C(=O)N1 (stereo not drawn) [Compound 26, 3-(3-((3-chlorophenyl)amino)-2,5-dioxo-2,5-dihydro-1H-pyrrol-1-yl)piperidine-2,6-dione] | 0.365 | 0.293 | 0.228 | 0.913 | 0.929 | 0.981 | 0.290 | 0.381 | 0.478 | 0.855 | 0.869 | 0.787 | 0.952 | 1.036 | 1.107 |  |  |  |
| CCOC(=O)CN(C)C1=CC(=O)N(C2CCC(=O)NC2=O)C1=O (stereo not drawn) [Compound 17, Ethyl N-(1-(2,6-dioxopiperidin-3-yl)-2,5-dioxo-2,5-dihydro-1H-pyrrol-3-yl)-N-methylglycinate] | 0.043 | 0.032 | 0.015 | 1.006 | 0.996 | 1.037 | 1.020 | 1.018 | 1.025 | 0.897 | 0.912 | 0.895 | 0.942 | 1.001 | 0.795 |  |  |  |
| Cc1ccc(NC(=O)NCCc2cccc(NC3=CC(=O)N(C4CCC(=O)NC4=O)C3=O)c2)cc1Cl (stereo not drawn) [Compound 62, 1-(3-chloro-4-methylphenyl)-3-(3-((1-(2,6-dioxopiperidin-3-yl)-2,5-dioxo-2,5-dihydro-1H-pyrrol-3-yl)amino)phenethyl)urea] | 1.642 | 1.563 | 1.483 | 0.040 | 0.015 | 0.036 | 0.133 | 0.098 | 0.109 |  |  |  | 0.353 | 1.021 | 1.208 | 29 | 26 | > 1000 |
